Experimental data from ChEMBL document CHEMBL1151139, “Bullatacin, bullatacinone, and squamone, a new bioactive acetogenin, from the bark of Annona squamosa” (J Nat Prod, 1990).
Values after ≈ are worked out from the molar mass of the structure shown.

What was measured:
A549 = assay: Cytotoxicity against human A549 cells; type: functional; conditions: for EC50: Homo sapiens, A549, read-out: ED50 (the source's name)
MCF7 [1] = assay: Cytotoxicity against human MCF7 cells; type: functional; conditions: for EC50: Homo sapiens, MCF7, read-out: ED50 (the source's name)
HT-29 = assay: Cytotoxicity against human HT-29 cells; type: functional; conditions: read-out: ED50 (the source's name)
[2] = Toxicity against brine shrimp; type: organism-based; conditions: artemia, in vivo; read-out: ED50 (the source's name)
MCF7 [3] = assay: Selectivity index, ratio of IC50 for human HT-29 cells to IC50 for human MCF7 cells; type: functional
MCF7 [4] = assay: Selectivity index, ratio of IC50 for human A549 cells to IC50 for human MCF7 cells; type: functional

With `CCCCCCCCCC[C@H](O)[C@H]1CC[C@H]([C@H]2CC[C@H]([C@H](O)CCCCCCCCCC[C@@H]3CC(CC(C)=O)C(=O)O3)O2)O1` (some centres undefined) [BULLATACINONE] the ED50 (A549) was 1.44 ×10⁻⁴ ug/ml, the ED50 (MCF7 [1]) was under 1 ×10⁻⁷ ug/ml and the EC50 (HT-29) was under 0.001 µg/mL.
Compound `CCCCCCCCCCCC[C@H](O)[C@@H]1CC[C@@H]([C@@H](O)CCCCCC(O)CCCCC2CC(CC(C)O)C(=O)O2)O1` (some centres undefined) [TETRAHYDROSQUAMONE] has an LC50 [2] of 2.7 µg/mL (≈ 4.51 µM), an EC50 (A549) of 0.141 µg/mL (≈ 0.235 µM) and an EC50 (MCF7 [1]) of 0.00989 µg/mL (≈ 0.0165 µM). The EC50 (HT-29) was 0.298 µg/mL (≈ 0.498 µM), the “Ratio ED50” value (MCF7 [3]) was 100 and the “Ratio ED50” value (MCF7 [4]) was 100.
Work on `CCCCCCCCCCCC[C@H](O)[C@@H]1CC[C@@H]([C@@H](O)CCCCCC(=O)CCCCC2CC(CC(C)=O)C(=O)O2)O1` (some centres undefined) [SQUAMONE] yielded an LC50 [2] of 2.1 µg/mL (≈ 3.53 µM) and an EC50 (HT-29) of 1.5 µg/mL (≈ 2.52 µM).
`COc1cccc2c1C(=O)c1c(O)c3c(c(O)c1C2=O)C[C@@](O)(C(=O)CO)C[C@@H]3O[C@H]1C[C@H](N)[C@H](O)[C@H](C)O1` [DOXORUBICIN] showed an EC50 (A549) of 0.00696 µg/mL (≈ 0.0128 µM), an EC50 (MCF7 [1]) of 0.029 µg/mL (≈ 0.0534 µM) and an EC50 (HT-29) of 0.0301 µg/mL (≈ 0.0554 µM).
